# The source made the active and inactive calls. The rule behind the calls is not given here.
# Test system: rodent lifetime carcinogenesis bioassay, tumor incidence TD50
# Assay: carcinogenic potency in animals, long-term in vivo studies, CPDB compilation (AID 1745844)
structure (smiles),measurement,setting,value
CC(=O)NNC(=O)c1ccncc1,TD50,"mouse, strain Swiss albino, females, in drinking water, site: liver, lesion: several types, types named in the paper, dosed 94 weeks, study length 94 weeks",55700 mg/kg/day
same,TD50,"mouse, strain Swiss albino, females, in drinking water, site: lung, lesion: several types, types named in the paper, dosed 94 weeks, study length 94 weeks",319 mg/kg/day
same,carcinogen call,"mouse, strain Swiss albino, males, in drinking water, site: liver, lesion: hemangioma, dosed 92 weeks, study length 92 weeks",negative (inactive)
same,TD50,"mouse, strain Swiss albino, males, in drinking water, site: lung, lesion: several types, types named in the paper, dosed 92 weeks, study length 92 weeks",342 mg/kg/day
CC1=C(/C=C/C(C)=C/C=C/C(C)=C/C(=O)O)C(C)(C)CCC1,carcinogen call,"rat, strain Sprague-Dawley, females, i.p., site: any site (literature study), lesion: malignant tumor, dosed 104 weeks, study length 104 weeks",negative (inactive)
same,TD50,"rat, strain Sprague-Dawley, males, i.p., site: any site (literature study), lesion: malignant tumor, dosed 104 weeks, study length 104 weeks",188 mg/kg/day (inactive)
CCCCN(CCCCO)N=O,TD50,"rat, strain F344/DuCrj, males, in drinking water, site: liver, lesion: hyperplastic nodule, dosed 106 weeks, study length 112 weeks",0.169 mg/kg/day
same,TD50,"rat, strain F344/DuCrj, males, in drinking water, site: urinary bladder, lesion: papilloma, dosed 106 weeks, study length 112 weeks",0.447 mg/kg/day
same,TD50,"rat, strain F344/DuCrj, males, in drinking water, site: urinary bladder, lesion: transitional-cell carcinoma, dosed 106 weeks, study length 112 weeks",0.432 mg/kg/day
same,carcinogen call,"rat, strain Fischer 344, females, in feed, site: urinary bladder, lesion: carcinoma, dosed 103 weeks, study length 103 weeks",positive
same,TD50,"rat, strain Fischer 344, males, in drinking water, site: testis, lesion: Leydig-cell tumor, dosed 78 weeks, study length 78 weeks",0.386 mg/kg/day
same,TD50,"rat, strain Fischer 344, males, in drinking water, site: urinary bladder, lesion: transitional-cell carcinoma, dosed 78 weeks, study length 78 weeks",0.175 mg/kg/day
same,TD50,"rat, strain Fischer 344, males, in feed, site: liver, lesion: hepatocellular carcinoma, dosed 103 weeks, study length 103 weeks",185 mg/kg/day
same,TD50,"rat, strain Fischer 344, males, in feed, site: urinary bladder, lesion: carcinoma, dosed 103 weeks, study length 103 weeks",0.549 mg/kg/day
same,TD50,"rat, strain Sprague-Dawley, males, by gavage, site: lung, lesion: carcinoma, dosed 39 weeks, study length 74 weeks",166 mg/kg/day
same,TD50,"rat, strain Sprague-Dawley, males, by gavage, site: urinary bladder, lesion: several types, types named in the paper, dosed 39 weeks, study length 74 weeks",1.17 mg/kg/day
same,TD50,"rat, strain Sprague-Dawley, males, in drinking water, site: liver, lesion: liver-cell carcinoma, dosed 104 weeks, study length 104 weeks",271 mg/kg/day
same,TD50,"rat, strain Sprague-Dawley, males, in drinking water, site: urinary bladder, lesion: carcinoma, dosed 104 weeks, study length 104 weeks",3.3 mg/kg/day
Cc1cccc(Nc2cc(Cl)nc(SCC(=O)O)n2)c1C,carcinogen call,"hamster, strain Syrian, MB strain, males, in feed, site: liver, lesion: several types, types named in the paper, dosed 60 weeks, study length 60 weeks",negative (inactive)
same,carcinogen call,"mouse, strain CSb, males, in feed, site: liver, lesion: hepatocellular carcinoma, dosed 53 weeks, study length 63 weeks",positive
same,TD50,"rat, strain F344/DuCrj, males, in feed, site: liver, lesion: several types, types named in the paper, dosed 52 weeks, study length 52 weeks",4.26 mg/kg/day
same,carcinogen call,"rat, strain F344/DuCrj, males, in feed, site: liver, lesion: several types, types named in the paper, dosed 78 weeks, study length 78 weeks",positive
same,TD50,"rat, strain Fischer 344, males, in feed, site: liver, lesion: hepatocellular adenoma, dosed 37 weeks, study length 52 weeks",95.1 mg/kg/day
same,TD50,"rat, strain Fischer 344, males, in feed, site: liver, lesion: hepatocellular adenoma, dosed 37 weeks, study length 104 weeks",190 mg/kg/day
same,TD50,"rat, strain Fischer 344, males, in feed, site: liver, lesion: hepatocellular adenoma, dosed 52 weeks, study length 52 weeks",2.29 mg/kg/day
same,TD50,"rat, strain Fischer 344, males, in feed, site: liver, lesion: hepatocellular adenoma, dosed 52 weeks, study length 104 weeks",84.3 mg/kg/day
same,carcinogen call,"rat, strain Fischer 344, males, in feed, site: liver, lesion: hepatocellular carcinoma, trabecular, dosed 69 weeks, study length 69 weeks",positive
same,TD50,"rat, strain Fischer 344, males, in feed, site: liver, lesion: hepatocellular carcinoma, dosed 37 weeks, study length 104 weeks",92.6 mg/kg/day
same,TD50,"rat, strain Fischer 344, males, in feed, site: liver, lesion: hepatocellular carcinoma, dosed 52 weeks, study length 52 weeks",19.2 mg/kg/day
same,TD50,"rat, strain Fischer 344, males, in feed, site: liver, lesion: hepatocellular carcinoma, dosed 52 weeks, study length 104 weeks",26.8 mg/kg/day
same,carcinogen call,"rat, strain Fischer 344, males, in feed, site: liver, lesion: hepatocellular carcinoma, dosed 65 weeks, study length 65 weeks",positive
same,TD50,"rat, strain Fischer 344, males, in feed, site: liver, lesion: several types, types named in the paper, dosed 37 weeks, study length 104 weeks",60 mg/kg/day
same,carcinogen call,"rat, strain Fischer 344, males, in feed, site: liver, lesion: several types, types named in the paper, dosed 52 weeks, study length 52 weeks",positive
same,TD50,"rat, strain Fischer 344, males, in feed, site: liver, lesion: several types, types named in the paper, dosed 52 weeks, study length 104 weeks",22.9 mg/kg/day
same,carcinogen call,"rat, strain Sprague-Dawley, males, in feed, site: liver, lesion: several types, types named in the paper, dosed 60 weeks, study length 60 weeks",positive
Nc1ccc2c(c1)oc1ccccc12,TD50,"rat, strain Wistar, males, in feed, site: any site (literature study), lesion: benign tumor, dosed 89 weeks, study length 89 weeks",1.57 mg/kg/day
same,TD50,"rat, strain Wistar, males, in feed, site: any site (literature study), lesion: malignant tumor, dosed 89 weeks, study length 89 weeks",2.48 mg/kg/day
same,TD50,"rat, strain Wistar, males, in feed, site: liver, lesion: hepatoma, dosed 89 weeks, study length 89 weeks",9.44 mg/kg/day
